Melting point data for 87 molecules are collected here from a melting point compilation (Tetko et al.; mined from patent text by program, amines drawn as free bases though some values may be those of a salt).

In the case of `C#CCn1c2c(c(=O)n(-c3ccc(Cl)c(C(=O)OCC)c3)c1=O)CCC2`, the melting point (in general, the temperature, or range, at which the solid turns liquid) fell in the range of 121 to 123 °C.

Consider `CC(=O)Nc1ccc(CO)cc1[N+](=O)[O-]`, for which the melting point fell in the range of 114 to 115 °C. `CCCCC(=O)N(CCCOCc1ccccc1)Cc1ccc(-c2ccccc2-c2nnn[nH]2)cc1`: the melting point fell in the range of 112 to 115 °C.

The molecule `O=C1c2ccccc2-c2c1c1ccccc1c(=O)n2CCCCO` returned a melting point of 165 to 166 °C. The value for `CC(=O)NCc1ccc(CN2CCN(c3cccc(C)c3)CC2)cc1` was 80 to 81 °C. Take `CN(C)NC(=O)NC(C(=O)O)c1cccs1` (configuration not stated): the melting point was 208 to 210 °C.

In turn, `Cc1c(O)c(C)c(Cc2cc(C(C)(C)C)c(O)c(C(C)(C)C)c2)c(C)c1Cc1cc(C(C)(C)C)c(O)c(C(C)(C)C)c1` yielded a melting point of 204 °C. For the molecule `CCOC(=O)Cc1ccc(NC(=O)Nc2ccccc2)cc1`, the melting point is 153 to 155 °C.

Molecule `O=C(Nc1ccc(CNc2nc(N3CCC3)nc3ccccc23)cc1)c1ccc(F)cc1` came in with a melting point of 249 °C.

For the molecule `CCOc1ccc(C(=O)Nc2ccccc2)cc1N(c1ccccc1)C(F)(F)F`, the melting point was in the range of 184 to 185 °C. Take `O=CNN(Cc1ccccc1[N+](=O)[O-])c1ccccc1`: the melting point lay within 140 to 142 °C.

As for `O=CNc1nc(S)n[nH]1`, the melting point is 260 to 262 °C. The molecule `O=C(Nc1cccnc1)N1CCN(c2ccnc(-c3cccc(F)c3F)n2)CC1` came in with a melting point of 208 to 209 °C. Molecule `COCCSc1cc2c(N3CCc4ccc(Cl)cc43)ncnc2cc1Cl` registered a melting point of 104 to 106 °C.

In turn, `CNC(=O)Nc1snc(SC)c1C#N` came in with a melting point of 286 °C. `O=C(Nc1ccc(Oc2ccnc(N3CCC4(CC3)OCCO4)n2)c2ccccc12)c1cc(F)cc(N2CCCCC2)c1`: the melting point is 195 to 196 °C. `CSCC1CCN(c2cn(-c3cccnc3)nc2Cl)C1=O` (configuration not stated) displayed a melting point of 83 to 84 °C.

The molecule `O=c1[nH]c2cccc(OCC(O)CNCCc3ccc(-n4c(CCC5CCCC5)nc5cccnc54)cc3)c2[nH]1` (configuration not stated) yielded a melting point of 115 to 117 °C. For the molecule `CN(CCO)C(=O)Nc1ccc2c(c1)C(c1ccccc1F)=NCC(=O)N2C`, the melting point lay within 196 to 198 °C. The value for `CN1c2ccc(Cl)cc2C(c2ccccc2[N+](=O)[O-])=Nc2cccnc21` was 165 to 166 °C.

As for `COc1ccc(-c2noc(C(F)F)c2-c2ccc(S(N)(=O)=O)cc2)cc1F`, the melting point lay in the range of 188 to 190 °C. `Cc1cc(C(=O)N2Cc3ccc(C(=O)N(C)CC(O)CO)n3Cc3ccccc32)ccc1-c1ccccc1C(F)(F)F` (configuration not stated) registered a melting point of 169 to 172 °C. In turn, `O=C(NCCOc1ccc(CC(Oc2ccccc2)C(=O)O)cc1)c1ccc(-c2ccccn2)cc1` (configuration not stated) displayed a melting point of 149 to 151 °C.

Regarding `CCOC(=O)CCCc1sc(N)nc1-c1ccc(Cl)cc1`, the melting point was 114 to 115 °C. On to `N#CCNC(=O)c1ccnc(F)c1`, for which the melting point was in the range of 124 to 125 °C. As for `COC(=O)C(C#N)CC(=S)c1ccc(C)cc1` (configuration not stated), the melting point fell in the range of 88 to 90 °C. The figure for `CC(=O)C=Cc1ccc2sccc2c1` is 75 °C; for `CC(C)(C)OC(=O)CC(NC(=O)C1CCCN2C(=O)CCC(NC(=O)c3ccccc3)C(=O)N12)C(O)COCc1c(Cl)cccc1Cl` (configuration not stated) it is 106 to 110 °C. The value for `Cc1cc(C)c2c(c1O)C(NC(=O)CN1CCN(c3cccc(Cl)c3)CC1)C(C)(C)C2` (configuration not stated) was 125 to 126 °C; that for `CCOC(=O)CON(C)C(=S)Nc1cc(Cl)ccc1C` was 83 to 84 °C; that for `O=C(O)c1cccnc1Cc1ccccc1` was 180 to 182 °C. The figure for `COc1ccc(Br)c(C(=O)N2CCN(S(=O)(=O)c3ccc(F)cc3F)CC2)c1` is 194 °C; for `O=S(=O)(Cl)c1ccc2oc(Br)c(CBr)c2c1` it is 129 to 130 °C; for `CCOC(=O)C1=C(C2CC2)Nc2n[nH]cc2C1c1cccc(C#N)c1Br` (configuration not stated) it is 168 to 170 °C.

Regarding `C[C@@H](n1ncn(-c2ccc(OC(F)(F)F)cc2)c1=O)[C@@]1(c2ccc(F)cc2F)CO1`, the melting point is 103 to 106 °C. As for `CN1C(=O)[C@H](NC(=O)CNc2ccc(C(F)(F)F)cc2)N=C(c2ccccc2)c2ccccc21`, the melting point lay within 218 to 219 °C. With `O=c1[nH][nH]c(=S)n(CCO)c1=O`, the melting point worked out at 230 °C. The figure for `C[Si](C)(C)C#Cc1ccc(-n2c(-c3ccccc3)ccc2-c2ccccc2)cc1` is 183 to 184 °C; for `Oc1c(I)cc(Br)cc1I` it is 122 to 124 °C; for `O=C(O)Cc1ccc(Oc2ccc(Cl)cc2)cc1` it is 98 to 100 °C. Molecule `CC(=O)Oc1c(C)c(C)c2c(c1C)CC(C)(CO)O2` (configuration not stated) gave a melting point of 98 to 99 °C. The value for `O=C(Cc1ccc(Cl)cc1)C1(c2ccc(Cl)c(Cl)c2)CCC1` was 82 to 84 °C; that for `Cc1ncn(Nc2ccc(F)cc2)c1-c1ccccc1` was 155 °C. `CCCc1c(OCCCCCOc2ccc(C(=O)c3ccccc3CC(=O)O)cc2CCC(=O)O)ccc2c1OCCC2=O` came in with a melting point of 105 to 108 °C. The figure for `Cc1cccc2c1[C@@H]1CN(C)CC[C@@H]1CC2=O` (relative stereo) is above 220 °C; for `CCOC(=O)Cn1c(C)c(-c2ccnc3cc(Cl)ccc23)c2cc(NC(C)=O)ccc21` it is 281 to 284 °C; for `CC(=O)Nc1ccc(C(C)=NNc2ccc(C3=NNC(=O)CC3C)cc2)cc1` (configuration not stated) it is 145 to 155 °C. As to `CC(C)OCC1(C(C)(F)F)c2cc(C#N)ccc2Nc2ncc(Cl)cc21` (configuration not stated), the melting point was in the range of 79 to 81 °C.

The molecule `COc1ccc(C(=O)Nc2ccc(F)c(F)c2)cc1NCc1cccc(C(=O)O)c1` returned a melting point of 240 to 243 °C. As to `O=S(=O)(c1ccc(Cl)cc1)C(CCO)c1cc(F)ccc1F` (configuration not stated), the melting point lay in the range of 147 to 149 °C. `Nc1ccc(-c2noc(-c3cnn4c(C(F)F)cc(-c5ccc(C(F)(F)F)cc5)nc34)n2)cn1` yielded a melting point of 242 °C. As for `COc1cc(C)c(Nc2nnc3n2C(c2ccc(F)cc2)CSC3)cc1OC` (configuration not stated), the melting point was 165 to 166 °C. For the molecule `NCC(O)CNC(=O)CCCCCCCCCCCO` (configuration not stated), the melting point was 119 °C.

For the molecule `CC1(C(O)=C(Cc2ccc(Cl)cc2Cl)n2cncn2)COCOC1`, the melting point was in the range of 190 to 192 °C. As for `Cn1cc(-c2ccccc2)c(=O)c(-c2cccc(C#N)c2)c1`, the melting point was 164 to 166 °C. The molecule `COC(=O)c1cc2cccnc2cc1C(=O)OC` yielded a melting point of 101 to 102 °C. Regarding `COc1cc(C(=O)NC2CC(C)(C)N(C)C(C)(C)C2)ccc1-c1nc2cc(Cl)c(Cl)cc2n1C`, the melting point fell in the range of 178 to 180 °C. Consider `N#Cc1ccc(N2CCc3[nH]c4c(cnc5cc(Cl)ccc54)c3C2)cc1`, for which the melting point was above 275 °C. The figure for `CC(C)C[C@H](NC(=O)c1cc2ccccc2o1)C(=O)N[C@H]1CC[C@@H](C)N(S(=O)(=O)c2ccccn2)CC1=O` is 151 to 153 °C; for `Cc1[nH]c(=O)c(C#N)c2c1CC(C)CC2` (configuration not stated) it is above 290 °C; for `COC(=O)C(C)N(C(=O)CCl)c1c(Cl)cccc1Cl` (configuration not stated) it is 82 to 85 °C. In turn, `CC1=C(Cl)CC2C(=O)OC(=O)C2C1` (configuration not stated) registered a melting point of 76 to 78 °C. Molecule `CCC12CCC3C4CCC(=O)C=C4CCC3C1=CC=C2c1ccccc1` (configuration not stated) returned a melting point of 191 °C. The value for `COc1cc(C2CCNCC2)ccc1Nc1ncc2ccc(N3CC(c4ccccc4)CC3=O)n2n1` (configuration not stated) was 178 to 183 °C; that for `CCCCCCCCCCCCCCCCCCOc1cc(NC(C)=O)cc(N(CC(=O)OCc2ccccc2)CC(=O)OCc2ccccc2)c1` was 89 to 90 °C.

Molecule `CC(C)Oc1ccccc1-c1cc(=O)c2cc(-c3nnn[nH]3)ccc2o1` returned a melting point of 293 to 295 °C. On to `Cc1cc(-c2ncn3c(C(F)(F)F)cc(-c4cccc(C(F)(F)F)c4)nc23)ccn1`, for which the melting point worked out at 234 °C. For the molecule `CN(C)c1ncc2c(n1)-c1ccc(Cl)cc1C(c1ccccc1F)=NC2`, the melting point lay within 175 to 179 °C. The figure for `CC1(C)Cc2c(sc(N)c2C(N)=O)C(C)(C)C1` is 140 to 145 °C. As to `COc1ccc(OC2COc3ccc(OCc4ccccc4)cc3C2=O)cc1` (configuration not stated), the melting point is 98 to 100 °C. Turning to `O=c1nc(-c2ccc[nH]2)sc2ccccc12`, the melting point was 202 to 203 °C.

`O=C(Nc1ccc(C(=O)N2CC(C(=O)O)Cc3ccccc32)cc1)c1cc(Cl)cc(Cl)c1` (configuration not stated) registered a melting point of 221 to 223 °C.

`CN1CCN(c2cccc(-c3cnn4c(N)c(Cc5ccccc5)cnc34)c2)CC1` had a melting point of 72 to 75 °C. The molecule `CN1C(=O)CCC(C)(C)c2ccc(NC(=O)c3ccc(C(=O)O)cc3)cc21` returned a melting point above 250 °C. The value for `Cc1nnsc1C(=O)Nc1ccc(-n2nc(C(F)(F)F)cc2OC(F)F)cc1` was 122 to 123 °C; that for `Cn1nc(-c2ccc(F)cc2)c(-c2ccncc2)c1C(O)CCc1ccccc1` (configuration not stated) was 62 to 65 °C. For the molecule `Nc1c(-c2ccc(C(F)(F)F)cc2F)nnn1Cc1ccc(O)cc1`, the melting point is 168 to 170 °C. In the case of `COc1ccc2c(c1CC=C(C)C)OC(c1ccc(O)cc1O)CC2` (configuration not stated), the melting point is 95 to 96 °C.

The molecule `CC(Nc1ccc2[nH]c(=O)oc2c1)C(=O)N1CCC(Cc2ccccc2)CC1` (configuration not stated) displayed a melting point of 91 °C. Molecule `CNC(=O)Oc1ccccc1Cl` showed a melting point of 90 to 91 °C. With `COC(=O)c1cc(C(=O)NN2CCCCC2)c2cc(Cc3ccc(F)cc3)cnc2c1O`, the melting point is 233 to 234 °C.

`CCOc1ccc(-n2c(C(F)(F)F)nn(C)c2=S)cc1` gave a melting point of 93 to 95 °C. As to `COc1ccc(C(=NO)c2ccccc2F)c(Cl)c1Cl`, the melting point fell in the range of 195 to 197 °C. The figure for `CCCCCCc1ccc(/C(Cl)=C/c2ccc(Br)cc2)cc1` is 52 °C; for `CCCCCC(C)N(CCCC)c1ccc(C2=C(C#N)C(=C(C#N)C#N)NC2=O)cc1` (configuration not stated) it is 180 °C; for `O=C(O)C(NC(=O)C(F)(F)F)c1ccccc1` (configuration not stated) it is 155 to 157 °C. `COc1cc(Nc2cc(C(=O)NN)ccn2)cc(C(F)(F)F)c1` returned a melting point of 229 to 230 °C.
